# pIC50: −log10 of the molar value.
# Target: T1, MAGL (Homo sapiens, UniProt Q99685)
# T1 sequence (Q99685 1-303): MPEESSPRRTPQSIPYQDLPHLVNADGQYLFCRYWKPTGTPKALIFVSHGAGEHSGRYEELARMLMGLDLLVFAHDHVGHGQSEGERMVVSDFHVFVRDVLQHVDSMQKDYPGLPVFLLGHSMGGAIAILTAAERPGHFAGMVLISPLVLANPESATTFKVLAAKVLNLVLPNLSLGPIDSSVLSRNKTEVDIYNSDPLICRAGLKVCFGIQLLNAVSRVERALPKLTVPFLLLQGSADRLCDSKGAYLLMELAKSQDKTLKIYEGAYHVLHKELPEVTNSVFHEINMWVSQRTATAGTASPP
# Assay: 2-AG assay: MAGL inhibitory activity by hydrolysis of 2-arachidonoylglycerol to arachidonic acid, followed by mass spectrometry
# Type: biochemical
# Settings: 15 min preincubation, 30 min reaction at RT, 8 μM 2-arachidonoylglycerol
# Excerpt: Compounds of formula (I) were profiled for MAGL inhibitory activity by determining the enzymatic activity by following the hydrolysis of the natural substrate 2-arachidonoylglycerol (2-AG) resulting in arachidonic acid, which can be followed by mass spectrometry. This assay is hereinafter abbreviated “2-AG assay”.
# Compounds of formula (I) were profiled for MAGL inhibitory activity by determining the enzymatic activity by following the hydrolysis of the natural substrate 2-arachidonoylglycerol (2-AG) resulting in arachidonic acid, which can be followed by mass spectrometry. This assay is hereinafter abbreviated “2-AG assay”. The 2-AG assay was carried out in 384 well polypropylene assay plates. Compound dilutions were made in 100% DMSO in a polypropylene plate in 3-fold dilution steps to give a final concentration range in the assay from 12.5 μM to […]. Compound dilutions were added to MAGL protein in assay buffer (50 mM TRIS, 1 mM EDTA, 0.01% (v/v) Tween-20, 2.5% (v/v) DMSO). After shaking, the plate was incubated for 15 min at RT. To start the reaction, 2-arachidonoylglycerol in assay buffer was added. The final concentrations in the assay was […] for MAGL protein and 8 μM 2-arachidonoylglyerol. After shaking and 30 min incubation at RT, the reaction was quenched by the addition of two assay volumes of acetonitrile containing 4 μM of d8-arachidonic acid. The amount of arachidonic acid formed was traced by an online SPE system (Agilent Rapidfire) coupled to a triple quadrupole mass spectrometer. A C18 SPE cartridge (Agilent G9205A) was used in an acetonitrile/water liquid setup. The mass spectrometer was operated in negative electrospray mode following the mass transitions 303.1→259.1 for arachidonic acid and 311.1→267.0 for d8-arachidonic acid. The activity of the compounds was calculated based on the ratio of intensities [arachidonic acid/d 8-arachidonic acid].
row,pIC50,Structure (SMILES)
1,8.26,"CS(=O)(=O)c1cc(F)ccc1CC1CC2(C1)CN(C(=O)N1CC3(CCC(=O)N3)C1)C2 [Example 41, 2-[6-(4-fluoro-2-mesyl-benzyl)-2-azaspiro[3.3]heptane-2-carbonyl]-2,5-diazaspiro[3.4]octan-6-one]"
2,7.05,"O=C1CCC2(CN(C(=O)N3CC4(CC(Cc5ccc6[nH]ncc6n5)C4)C3)C2)N1 [Example 321, 2-[6-(1H-pyrazolo[4,3-b]pyridin-5-ylmethyl)-2-azaspiro[3.3]heptane-2-carbonyl]-2,5-diazaspiro[3.4]octan-6-one]"
3,8.26,"O=C1COCC2(CN(C(=O)N3CC4(CC(Cc5ccc(S(=O)(=O)C(F)(F)F)cn5)C4)C3)C2)N1 [Example 264, 2-[6-[[5-(trifluoromethylsulfonyl)-2-pyridyl]methyl]-2-azaspiro[3.3]heptane-2-carbonyl]-8-oxa-2,5-diazaspiro[3.5]nonan-6-one]"
4,7.32,"N#Cc1cc(OC2CC3(C2)CN(C(=O)N2CC4(CCC(=O)N4)C2)C3)ccc1C(F)(F)F [Example 307, 5-[[2-(6-oxo-2,5-diazaspiro[3.4]octane-2-carbonyl)-2-azaspiro[3.3]heptan-6-yl]oxy]-2-(trifluoromethyl)benzoni-trile]"
5,7.68,"O=C1COCC2(CN(C(=O)N3CC4(CC(Cc5cncc(C(F)(F)F)c5)C4)C3)C2)N1 [Example 173, 2-[6-[[5-(trifluoromethyl)-3-pyridyl]methyl]-2-azaspiro[3.3]heptane-2-carbonyl]-8-oxa-2,5-diazaspiro[3.5]nonan-6-one]"
6,9.64,"O=C1NC2(CO1)CN(C(=O)N1CC3(CC(Cc4ncc(C(F)(F)F)cc4F)C3)C1)C2 [Example 28, 2-[6-[[3-fluoro-5-(trifluoromethyl)-2-pyridyl]methyl]-2-azaspiro[3.3]heptane-2-carbonyl]-7-oxa-2,5-diazaspiro[3.4]octan-6-one]"
7,9.24,"O=C1NC2(CO1)CN(C(=O)N1CC3(CCC(Cc4cnc(C(F)(F)F)cn4)CC3)C1)C2 [Example 112, 2-[7-[[5-(trifluoromethyl)pyrazin-2-yl]methyl]-2-azaspiro[3.5]nonane-2-carbonyl]-7-oxa-2,5-diazaspiro[3.4]octan-6-one]"
8,7.26,"O=C1COCC2(CN(C(=O)N3CC4(CC(Cc5nc(C(F)(F)F)ns5)C4)C3)C2)N1 [Example 363, 2-[6-[[3-(trifluoromethyl)-1,2,4-thiadiazol-5-yl]methyl]-2-azaspiro[3.3]heptane-2-carbonyl]-8-oxa-2,5-diazaspiro[3.5]nonan-6-one]"
9,9.01,"O=C1COCC2(CN(C(=O)N3CC4(CC(Cc5ccc(F)cc5F)C4)C3)C2)N1 [Example 137, 2-[6-(2,4-difluorobenzyl)-2-azaspiro[3.3]heptane-2-carbonyl]-8-oxa-2,5-diazaspiro[3.5]nonan-6-one]"
10,7.27,"O=C1NCC2(CN(C(=O)N3CC4(CC(Cc5ccc(C(F)(F)F)nc5)C4)C3)C2)N1 [Example 42, 2-[6-[[6-(trifluoromethyl)-3-pyridyl]methyl]-2-azaspiro[3.3]heptane-2-carbonyl]-2,5,7-triazaspiro[3.4]octan-6-one]"

# The remaining lines, values behind:
row,Structure (SMILES),pIC50
1,"O=C1CCC2(CN(C(=O)N3CC4(CCC(Cc5cnc(C(F)(F)F)cn5)CC4)C3)C2)N1 [Example 102, 2-[7-[[5-(trifluoromethyl)pyrazin-2-yl]methyl]-2-azaspiro[3.5]nonane-2-carbonyl]-2,5-diazaspiro[3.4]octan-6-one]",7.97
2,"O=C1COCC2(CN(C(=O)N3CC4(CCC(OCC5(C(F)(F)F)CC5)CC4)C3)C2)N1 [Example 88, 2-[7-[[1-(trifluoromethyl)cyclopro-pyl]methoxy]-2-azaspiro[3.5]nonane-2-carbonyl]-8-oxa-2,5-diazaspiro[3.5]nonan-6-one]",7.87
3,"O=C1NC2(CO1)CN(C(=O)N1CC3(C1)CN(c1cncc(F)c1)C3)C2 [Example 318, 2-[6-(5-fluoro-3-pyridyl)-2,6-diazaspiro[3.4]heptane-2-carbonyl]-7-oxa-2,5-diazaspiro[3.4]octan-6-one]",6.84
4,"CS(=O)(=O)c1cc(C(F)(F)F)ccc1CC1CC2(C1)CN(C(=O)N1CC3(COC(=O)N3)C1)C2 [Example 27, 2-[6-[2-mesy1-4-(trifluoromethyl)benzyl]-2-azaspiro[3.3]heptane-2-carbonyl]-7-oxa-2,5-diazaspiro[3.4]octan-6-one]",9.85
5,"O=C1COCC2(CN(C(=O)N3CC4(CN(Cc5ccc(C(F)(F)F)cc5F)C4)C3)C2)N1 [Example 372, 2-[6-[2-fluoro-4-(trifluoromethyl)benzyl]-2,6-diazaspiro[3.3]heptane-2-carbonyl]-8-oxa-2,5-diazaspiro[3.5]nonan-6-one]",7.81
6,"O=C1COCC2(CN(C(=O)N3CC4(CC(CNC5(C(F)(F)F)CC5)C4)C3)C2)N1 [Example 89, 2-[6-[[[1-(trifluoromethyl)cyclopro-pyl]amino]methyl]-2-azaspiro[3.3]heptane-2-carbonyl]-8-oxa-2,5-diazaspiro[3.5]nonan-6-one]",7.53
7,"CS(=N)(=O)c1cc(CC2CC3(C2)CN(C(=O)N2CC4(CCC(=O)N4)C2)C3)cc(C(F)(F)F)c1 (stereo not drawn) [Example 255, 2-[6-[[3-(methylsulfonimidoyl)-5-(trifluoromethyl)phenyl]methyl]-2-azaspiro[3.3]heptane-2-carbonyl]-2,5-diazaspiro[3.4]octan-6-one]",8.38
8,"O=C1CCC2(CN(C(=O)N3CC4(CCC(Cc5ncc(F)cc5F)CC4)C3)C2)N1 [Example 125, 2-[7-[(3,5-difluoro-2-pyridyl)methyl]-2-azaspiro[3.5]nonane-2-carbonyl]-2,5-diazaspiro[3.4]octan-6-one]",8.24
9,"Cn1ncc(CC2CC3(C2)CN(C(=O)N2CC4(COCC(=O)N4)C2)C3)c1C(F)(F)F [Example 368, 2-[6-[[1-methyl-5-(trifluoromethyl)pyrazol-4-yl]methyl]-2-azaspiro[3.3]heptane-2-carbonyl]-8-oxa-2,5-diazaspiro[3.5]nonan-6-one]",8.39
10,"O=C1NC2(CO1)CN(C(=O)N1CC3(CC(c4ccc(S(=O)(=O)C(F)(F)F)cc4)C3)C1)C2 [Example 48, 2-[6-(4-triflylphenyl)-2-azaspiro[3.3]heptane-2-carbonyl]-7-oxa-2,5-diazaspiro[3.4]octan-6-one]",9.82
11,"O=C1NC2(CCO1)CN(C(=O)N1CC3(CC(Cc4cnc(C(F)(F)F)cn4)C3)C1)C2 [Example 43, 2-[6-[[5-(trifluoromethyl)pyrazin-2-yl]methyl]-2-azaspiro[3.3]heptane-2-carbonyl]-7-oxa-2,5-diazaspiro[3.5]nonan-6-one]",6.19
12,"O=C1CCC2(CN(C(=O)N3CC4(CCN(S(=O)(=O)C56CC(C(F)(F)F)(C5)C6)CC4)C3)C2)N1 [Example 205, 2-[7-[[3-(trifluoromethyl)-1-bicyclo[1.1.1]pentanyl]sulfonyl]-2,7-diazaspiro[3.5]nonane-2-carbonyl]-2,5-diazaspiro[3.4]octan-6-one]",6.58
13,"O=C1NC2(CO1)CN(C(=O)N1CC3(C1)CN(c1ncc(C(F)(F)F)cn1)C3)C2 [Example 207, 2-[6-[5-(trifluoromethyl)pyrimi-din-2-yl]-2,6-diazaspiro[3.3]heptane-2-carbonyl]-7-oxa-2,5-diazaspiro[3.4]octan-6-one]",6.38
14,"O=C1CCCC2(CN(C(=O)N3CC4(CC(Cc5cc(C(F)(F)F)n[nH]5)C4)C3)C2)N1 [Example 278, 2-[6-[[3-(trifluoromethyl)-1H-pyrazol-5-y1]methyl]-2-azaspiro[3.3]heptane-2-carbonyl]-2,5-diazaspiro[3.5]nonan-6-one]",6.32
15,"Cn1ncc(C(F)(F)F)c1CN1CCC2(CC1)CN(C(=O)N1CC3(CCC(=O)N3)C1)C2 [Example 325, 2-[7-[[2-methyl-4-(trifluoromethyl)pyrazol-3-yl]methyl]-2,7-diazaspiro[3.5]nonane-2-carbonyl]-2,5-diazaspiro[3.4]octan-6-one]",8.41
16,"O=C1CCC2(CN(C(=O)N3CC4(CCN(Cc5cc(C(F)(F)F)[nH]n5)CC4)C3)C2)N1 [Example 350, 2-[7-[[5-(trifluoromethyl)-1H-pyrazol-3-yl]methyl]-2,7-diazaspiro[3.5]nonane-2-carbonyl]-2,5-diazaspiro[3.4]octan-6-one]",6.78
17,"O=C1CCC2(CN(C(=O)N3CC4(CC(Cc5cc(C(F)(F)F)n[nH]5)C4)C3)C2)N1 [Example 220, 2-[6-[[3-(trifluoromethyl)-1H-pyrazol-5-yl]methyl]-2-azaspiro[3.3]heptane-2-carbonyl]-2,5-diazaspiro[3.4]octan-6-one]",8.38
